Experimental data: patent US6875775B2, “Triphenylalkene derivatives and their use as selective estrogen receptor modulators” (Hormos Medical Oy LTD, priority 1999, dated 2005)
Read-outs that look alike come from different tables or passages of the source.

What was measured:
immature rat uterus = experiment: 3 day uterotropic assay in immature female rats; settings: Table 3
Procedure: Estimation of Estrogenicity and Antiestrogenicity in Vivo
The results have been shown in Table 3 both as per cent of estrogen stimulation (100%), and as inhibition of estrogen action (full inhibition is 100%). The values are given at two dose levels, low i.e. 3-5 mg/kg and high i.e. 10-50 mg/kg. Estrogenic activity can be estimated also after a 4 weeks' treatment of ovariectomized rats based on the uterine size.

MCF-7 cells = experiment: cells; type: cell-based; settings: for Killing of MCF-7 cells at the highest investigated concentration (in words): 10 μM, compounds with weak hormonal activity; for cytotoxicity at 10 µM / inhibition at 1 µM / Emax: Homo sapiens, MCF7, 96 h; for cytotoxicity at 10 µM / Maximal Cell Kill (% fraction of dead cells): 10 μmol/l; for cytotoxicity at 10 µM: read-out: Maximal Cell Kill (% fraction of dead cells); for inhibition at 1 µM: read-out: Antagonism at 1 μM (% of full antagonism); for Emax: read-out: Maximal Agonism (% of E2)
Procedure: Evaluation of Estrogenic and Antiestrogenic Properties of Compounds in MCF-7 Cell Growth Experiments in Vitro
For experiments involving hormone or anti-hormone treatment, the cells in exponential growth phase were precultivated in the absence of estradiol for one day. […] After the incubation period the medium was removed. The exposure to study drugs was started immediately by adding fresh medium with 5% stripped serum. Half of the cells were grown with estradiol, half without estradiol. Study compounds (dissolved in ethanol in 0.01 M concentration and diluted with the growth medium as appropriate) were added. The final concentrations of the compounds were 1, 10, and 100 nM, and 1 and 10 μM. The cells were incubated for four days.
This method allows evaluation of estrogenicity based on the ability of the compounds to stimulate the growth of the estrogen-dependent cells in the absence of estradiol.
Estrogenicity was estimated by comparing the maximal growth stimulus (at any concentration) of study compound as percent from growth stimulus by estradiol (100% stimulus). […] At high concentrations molecules may also show toxicity. Toxicity was estimated as the fraction of dead cells (i.e. 100% means that all cells have died during the exposure).

[1] = Overall hormonal profile summarised from Tables 2, 3 and 4
[2] = tested on: ovariectomized (OVX) rats; experiment: Serum cholesterol level in ovariectomized (OVX) rats after 4 weeks dosing; type: in vivo, rat; settings: for Effect on cholesterol (in words): OVX rats, Table 4; for Cholesterol level (mmol/l) in serum: OVX rat, 4 weeks dosing
From the text: Estimation of Effects to Cholesterol and Bone
(§1) Compounds were given p.o. to female rats for 4 or 5 weeks daily. At the end a blood sample was taken. Serum was separated by centrifugation and frozen until analyzed for total amount of cholesterol. Bone samples were taken from vertebra and tibia. Physical strength of the bones was studied as described by Peng et al, 1994.

[3] = tested on: DMBA-induced rat mammary gland cancer; experiment: Antitumor activity in DMBA-induced rat mammary gland cancer model; type: in vivo
Procedure: Estimation of Antitumor Activity in Vivo
Antitumor activity was estimated by using DMBA (dimethylbenz[a] anthracene) model. One single peroral dose of DMBA (12 mg) initiates mammary gland carcinogenesis. New compounds were administered for 5 weeks when palpable tumors appeared. Size of the tumors and number of new tumors were carefully estimated once a week until termination. The model has been described in detail by Kangas et al, 1986. The growth of the tumors was measured once a week. All tumors were classified according to their growth properties to progressing, stable and regressing ones. Disappeared tumors were separately calculated. The tumors were considered to be progressing, if the tumor volume grew more than 8-fold during the 5 weeks dosing period, and regressing if the tumor volume decreased to one fourth or less from the volume in the beginning. If tumor volume changed less or remained unchanged, the tumors were considered to be stable.

ovariectomized rats [4] = experiment: Ash weight of tibial epiphyses in ovariectomized rats after 4 weeks dosing; type: in vivo, rat; settings: OVX rats
From the text: as §1, with “1994. The assessments of the bone included:” for “1994.”
Ash Weight of Tibial Epiphyses
Epiphyses of one tibia was carefully prepared and burned. Samples were burned to remove water and organic material. Ash weight relates to the mineral content of the bone. In addition, bone samples were taken to study the histomorphometry. In some cases the bone formation was studied by injecting tetracycline (50 mg/kg i.p. 10 days before autopsy) and calcein (20 mg/kg i.p. 3 days before autopsy). The method is based on permanent binding of tetracycline into growing bone and its detection by fluorescence (Peng et al, 1994).

[5] = tested on: intact and castrated male rats; experiment: Weight of the prostate gland in intact and castrated male rats after 4 weeks daily treatment; type: in vivo, rat; settings: for Weight of the prostate gland (g) mean and sd: 4 weeks daily
ovariectomized rats [6] = experiment: Maximal load of femoral neck (cantilever bending test) in ovariectomized rats after 4 weeks dosing; type: in vivo, rat; settings: OVX rats
Procedure: as §1, with “1994. The assessments of the bone included:” for “1994.”
Mechanical Testing of Bones
The mechanical testing of bones was carried out by materials testing machine, constructed in-house at Oulu University (Technical Services Dcpartment of the Medical Faculty). The testing machine is based on lever arm principle. One end of a steel lever is fixed. The pressing rod and the driving motor are connected to the lever arm with a moment ratio of 12.5 cm/50 cm=¼. As a driving motor a linear actuator (SEY 10 Magnetic Elektromotoren AG, Switzerland) is used to obtain constant vertical movement (0.62 cm/s). The interchangeable compression head is mounted on the pressing rod for different tests transmitting compressive force to the specimen, and moving at a constant speed of 0.155 mm/s up to a maximal load capacity of 1200 N. The pressing rod is guided via an axial ball bearing to keep the movement vertical. Compressive force is measured by a temperature-compensated force sensor, which is attached to the stationary part of the compression stage. The measuring electronics include sensor calibration and adjustments.
The maximal load on the femoral neck was measured by the cantilever bending test. The supporter for the bone was a thick polymethyl methacrylate plate in which several holes of different sizes were drilled. On one side of each hole a groove was engraved for the […] trochanter of the femur. The femur was cut exactly between the middle and lower third of the shaft. The bone was inserted perpendicularly and tightly into a suitable hole on the supporter. The lesser trochanter of each bone touched the surface of the plate. This procedure allowed rapid and stable fixation of the bone without using any additional embedding materials. […]

ovariectomized rats [7] = experiment: Size of the uterus after 4 weeks treatment of ovariectomized rats; type: in vivo, rat
[8] = 15 mg/kg p.o. daily for 5 weeks
[9] = Without estradiol (E2), maximal growth stimulus at any concentration, 4 days

## CN(C)CCOc1ccc(/C(=C(/CCCl)c2ccccc2)c2ccc(F)cc2)cc1 [No. 1, (E)-(2-{4-[4-Chloro-1-(4-fluorophenyl)-2-phenylbut-1-enyl]phenoxy}ethyl)-dimethylamine]
Immature rat uterus
  Estrogenic action in vivo / in the uterus (in words): weak estrogen in vivo
MCF-7 cells
  Killing of MCF-7 cells at the highest investigated concentration (in words): kill MCF-7 cells (human breast cancer cells) effectively
MCF-7 cells; in vitro, Table 2
  Estrogenic action in vitro (in words): no estrogenic action in vitro

## CN(C)CCOc1ccc(/C(=C(/CCCl)c2ccccc2)c2ccc(Cl)cc2)cc1 [No. 3, (E)-(2-{4-[4-Chloro-1-(4-chlorophenyl)-2-phenylbut-1-enyl]phenoxy}ethyl)-dimethylamine]
[1]
  Estrogenic and antiestrogenic action (in words): weak estrogenic and no antiestrogenic action
[2]
  Effect on cholesterol (in words): decrease cholesterol
MCF-7 cells
  Killing of MCF-7 cells at the highest investigated concentration (in words): kill MCF-7 cells (human breast cancer cells) effectively

## OCCOCCOc1ccc(/C(=C(/CCCl)c2ccccc2)c2ccccc2)cc1 [No. 19, (Z)-2-{2-[4-(4-Chloro-1,2-diphenylbut-1-enyl)phenoxy]ethoxy}ethanol]
[1]
  Estrogenic and antiestrogenic action (in words): weak estrogenic and no antiestrogenic action
[2]; 0.3 mg/kg
  Cholesterol level (mmol/l) in serum: 3.6 ± 0.4 mmol/L
[2]; 10 mg/kg
  Cholesterol level (mmol/l) in serum: 3.9 ± 0.6 mmol/L
[2]
  Effect on cholesterol (in words): decrease cholesterol
[3]; 3 mg/kg p.o. daily for 5 weeks
  Disappeared tumors (per cent of total tumor number): 20%
  Growing tumors (per cent of total tumor number): 20%
  Regressing tumors (per cent of total tumor number): 40%
  Stable tumors (per cent of total tumor number): 20%
[3]; [8]
  Disappeared tumors (per cent of total tumor number): 14%
  Growing tumors (per cent of total tumor number): 14%
  Regressing tumors (per cent of total tumor number): 57%
  Stable tumors (per cent of total tumor number): 14%
[3]; DMBA-induced rat mammary tumor model, even at very low doses
  Anticancer efficacy in vivo compared with tamoxifen and toremifene (in words): more effective anticancer drug in vivo
Ovariectomized rats [4]; 1.0 mg/kg p.o.
  Ash weight (mg) of tibial epiphyses: 34.8 ± 1.3 mg
Ovariectomized rats [4]; 5.0 mg/kg p.o.
  Ash weight (mg) of tibial epiphyses: 34.9 ± 1.9 mg
[5]; 0.5 mg/kg to castrated rats
  Weight of the prostate gland (g) mean and sd: 0.59 ± 0.07 g
[5]; 0.5 mg/kg, intact male rats
  Weight of the prostate gland (g) mean and sd: 2.66 ± 0.21 g
[5]; 5.0 mg/kg to castrated rats
  Weight of the prostate gland (g) mean and sd: 0.62 ± 0.07 g
[5]; 5.0 mg/kg, intact male rats
  Weight of the prostate gland (g) mean and sd: 1.58 ± 0.5 g
[5]; at doses which are active in DMBA-induced mammary tumor model
  Estrogenic action on the weight of the prostate gland (in words): does not show any estrogenic action
MCF-7 cells
  Killing of MCF-7 cells at the highest investigated concentration (in words): kill MCF-7 cells (human breast cancer cells) effectively
MCF-7 cells; With estradiol (E2)
  cytotoxicity at 10 µM: 50%
MCF-7 cells; Without estradiol (E2)
  cytotoxicity at 10 µM: 14%
MCF-7 cells; With estradiol (E2), 1 μM
  inhibition at 1 µM: 21%
MCF-7 cells; [9]
  Emax: 14%
Ovariectomized rats [6]; 1.0 mg/kg p.o.
  Maximal load (N) of femoral neck: 81.6 ± 7.9 N
Ovariectomized rats [6]; 5.0 mg/kg p.o.
  Maximal load (N) of femoral neck: 85.7 ± 17.0 N
Ovariectomized rats [7]; 1.0 mg/kg peroral daily
  Uterine size: 0.192 ± 0.029 g
Ovariectomized rats [7]; 5.0 mg/kg peroral daily
  Uterine size: 0.221 ± 0.023 g

## OCC(O)COc1ccc(/C(=C(/CCCl)c2ccccc2)c2ccccc2)cc1 (centres unmarked) [No. 20, (Z)-3-[4-(4-Chloro-1,2-diphenyl-but-1-enyl)phenoxy]propane-1,2-diol]
[1]
  Estrogenic and antiestrogenic action (in words): weak estrogenic and no antiestrogenic action
[2]; 1 mg/kg
  Cholesterol level (mmol/l) in serum: 3.3 ± 0.6 mmol/L
[2]; 5 mg/kg
  Cholesterol level (mmol/l) in serum: 2.3 ± 0.4 mmol/L
[2]
  Effect on cholesterol (in words): decrease cholesterol
Ovariectomized rats [4]; 3.0 mg/kg p.o.
  Ash weight (mg) of tibial epiphyses: 35.0 ± 3.2 mg
MCF-7 cells; With estradiol (E2)
  cytotoxicity at 10 µM: 60%
MCF-7 cells; Without estradiol (E2)
  cytotoxicity at 10 µM: 5%
MCF-7 cells; With estradiol (E2), 1 μM
  inhibition at 1 µM: 25%
MCF-7 cells; [9]
  Emax: 8%
Ovariectomized rats [6]; 3.0 mg/kg p.o.
  Maximal load (N) of femoral neck: 81.7 ± 15.2 N
Ovariectomized rats [7]; 1.0 mg/kg peroral daily
  Uterine size: 0.133 ± 0.032 g

## CN(C)CCOc1cccc(/C(=C(/CCCl)c2ccccc2)c2ccccc2)c1 [No. 33, (Z)-{2-[3-(4-Chloro-1,2-diphenylbut-1-enyl)phenoxy]ethyl}dimethylamine]
[2]
  Effect on cholesterol (in words): decrease cholesterol
MCF-7 cells; [9]
  Emax: 20%
MCF-7 cells; Table 2
  Cytotoxic action (in words): weak

## C#CCN(C)CCOc1ccc(/C(=C(/CCCl)c2ccccc2)c2ccccc2)cc1 [No. 44, (Z)-{2-[4-(4-Chloro-1,2-diphenylbut-1-enyl)phenoxy]ethyl}-methylprop-2-ynylamine]
[1]
  Estrogenic and antiestrogenic action (in words): weak estrogenic and no antiestrogenic action
MCF-7 cells; With estradiol (E2)
  cytotoxicity at 10 µM: 95%
MCF-7 cells; Without estradiol (E2)
  cytotoxicity at 10 µM: 78%
MCF-7 cells; With estradiol (E2), 1 μM
  inhibition at 1 µM: 8%
MCF-7 cells; [9]
  Emax: 24%

## E-3-(4-Chloro-1-{4-[2-(2-hydroxyethoxy)ethoxy]phenyl}-2-phenylbut-1-enyl)phenol [Example 11]
[1]
  Estrogenic and antiestrogenic action (in words): weak estrogenic and no antiestrogenic action
MCF-7 cells; With estradiol (E2), 1 μM
  Antagonism at 1 μM (% of full antagonism): 0 % of full antagonism
MCF-7 cells; With estradiol (E2)
  Maximal Cell Kill (% fraction of dead cells): 55 % fraction of dead cells
MCF-7 cells; Without estradiol (E2)
  Maximal Cell Kill (% fraction of dead cells): 26 % fraction of dead cells
MCF-7 cells; [9]
  Maximal Agonism (% of E2): 14 % of E2
